Tests used:
[1] = tested on: Desulfovibrio gabonensis 700201; test: H2S and Log (Growth) efficacy against SRB, 96-Well Plate Method; type: cell-based
Description: (§1) A lyophilized Desulfovibrio alaskensis 14563, Desulfovibrio longus 51456, and Desulfovibrio gabonensis 700201 pure cultures received from ATCC were resuspended individually in 500 ul of MB 1250. Aseptically, the content was transferred to a 5-mL tube of MB1250 medium. The cultures were incubated in an anaerobic chamber at 30° C. for 72 hrs. Subsequently, an individual stock culture with a final concentration of 25% glycerol were prepared by adding equal volumes of culture and 50% glycerol. 1 ml of the cultures were then transferred to 2-ml cryogenic vials and stored at −80° C. The purity of the stock cultures was evaluated through PCR, by amplifying the 16S rDNA region, and thus, it was verified that the original ATCC sample was a pure culture. 48-hour cultures of ATCC Desulfovibrio alaskensis 14563, Desulfovibrio longus 51456, and Desulfovibrio gabonensis 700201 were prepared in an anaerobic chamber. Each culture was prepared as a 1:10 culture by taking 1 milliliter (mL) of a pure culture and inoculating 9 milliliters (mL) of fresh MB1250 media. The Desulfovibrio alaskensis 14563 and Desulfovibrio gabonensis 700201 were all grown at 30° C. and the Desulfovibrio longus 51456 culture was grown at 35° C.
(§2) After the 48-hour incubation, 600 microliters (μL) were taken from each culture and optical density (OD) was measured using a Thermofisher Spectronic 200 Spectrophotometer at 600 nm. Each culture was diluted to 0.05 OD600 in fresh MB1250 media and added to the 96 well plates. Edge wells were not used due to their inherent variability and evaporation of the media. Each of the components were added at their respective concentrations for a final volume of 500 μL per well. In Table 3, 6 and 7, the concentrations of the compound used for the experiments are listed. Each experiment was done with at least three replicates for different treatments and non-treatment controls. From these test plates, 200 μL were taken and placed into two separate plates for 3 and 6 days. Plates were then sealed with a titer-top and placed into anaerobic boxes and incubated in an anaerobic incubator at 30° C.
(§3) At each time point, sulfide samples were taken, and enumeration plates were made. Enumeration plates were made to determine the log growth in each dosed sample. For this process, enumeration plates were prepared by adding 180 μL fresh media MB1250 containing 0.01 wt % ferrous ammonium sulfate. 20 μL was taken from each well of the challenge plates and transferred to the enumeration plates using a 20-200 μL multichannel pipette. Enumeration plates were mixed three times using the multichannel pipette and serial diluted down the plate tenfold (20 μL into 180 μL). This serial dilution process was repeated for all challenge plate rows giving a total of 6 enumeration plates.
(§4) After 7 days these enumeration plates were read. The ferrous ammonium sulfate in each plate would be converted to iron sulfide, changing wells with SRB growth from clear to black. By counting the number of black wells in a row, the log growth from the original well in the challenge plate can be determined.
(§5) To determine hydrogen sulfide production in each sample, sulfide samples were also taken from each challenge plate. From each well, 9 μL were taken and added to 60 μL of 2% zinc acetate with 0.02% acetic acid. Then, 180 μL of milliQ water was added. 60 μL of stock solution 1 containing 64% sulfuric acid, <1% Dimethyl-4-phenylenediamine (DMPD), water to 100% was added to each well on the plates. This was followed by 3 μL of stock solution 3 containing 50% Iron (III) chloride. All chemicals are ordered from Fisher Scientific and used as received. These were mixed three times and read after 15 minutes. The plates were read at 670 nm using a Biotek microplate reader. Absorbance readings were converted to mM using a standard curve and this was converted to parts per million using the molar mass of sulfur. […]

[2] = tested on: Desulfovibrio longus 51456; test: as above; type: cell-based
Description: as §1, §2, §3, §4, §5

O=C(CN1C(=O)c2cccc3cccc(c23)C1=O)NO [C1]
H2S ([1]; 3 days, 6.4 PPM): 12.4 PPM | Log (Growth) ([1]; 3 days, 6.4 PPM): 0.0 | H2S ([1]; 3 days, 12.8 PPM): 12.1 PPM | Log (Growth) ([1]; 3 days, 12.8 PPM): 0.0 | H2S ([1]; 3 days, 25.6 PPM): 11.1 PPM | Log (Growth) ([1]; 3 days, 25.6 PPM): 0.0 | H2S ([1]; 3 days, 51.3 PPM): 12.3 PPM | Log (Growth) ([1]; 3 days, 51.3 PPM): 0.0 | H2S ([1]; 3 days, 102.5 PPM): 10.5 PPM | Log (Growth) ([1]; 3 days, 102.5 PPM): 0.0 | H2S ([1]; 3 days, 205.0 PPM): 10.0 PPM | Log (Growth) ([1]; 3 days, 205.0 PPM): 0.0 | H2S ([1]; 6 days, 6.4 PPM): 18.1 PPM | Log (Growth) ([1]; 6 days, 6.4 PPM): 0.0 | H2S ([1]; 6 days, 12.8 PPM): 10.4 PPM | Log (Growth) ([1]; 6 days, 12.8 PPM): 0.0 | H2S ([1]; 6 days, 25.6 PPM): 9.4 PPM | Log (Growth) ([1]; 6 days, 25.6 PPM): 0.0 | H2S ([1]; 6 days, 51.3 PPM): 8.4 PPM | Log (Growth) ([1]; 6 days, 51.3 PPM): 0.0 | H2S ([1]; 6 days, 102.5 PPM): 8.6 PPM | Log (Growth) ([1]; 6 days, 102.5 PPM): 0.0 | H2S ([1]; 6 days, 205.0 PPM): 8.5 PPM | Log (Growth) ([1]; 6 days, 205.0 PPM): 0.0 | H2S ([2]; 3 days, 6.4 PPM): 9.8 PPM | Log (Growth) ([2]; 3 days, 6.4 PPM): 0.0 | H2S ([2]; 3 days, 12.8 PPM): 9.3 PPM | Log (Growth) ([2]; 3 days, 12.8 PPM): 0.0 | H2S ([2]; 3 days, 25.6 PPM): 9.1 PPM | Log (Growth) ([2]; 3 days, 25.6 PPM): 0.0 | H2S ([2]; 3 days, 51.3 PPM): 8.8 PPM | Log (Growth) ([2]; 3 days, 51.3 PPM): 0.0 | H2S ([2]; 3 days, 102.5 PPM): 8.6 PPM | Log (Growth) ([2]; 3 days, 102.5 PPM): 0.0 | H2S ([2]; 3 days, 205.0 PPM): 8.7 PPM | Log (Growth) ([2]; 3 days, 205.0 PPM): 0.0 | H2S ([2]; 6 days, 6.4 PPM): 8.1 PPM | Log (Growth) ([2]; 6 days, 6.4 PPM): 0.0 | H2S ([2]; 6 days, 12.8 PPM): 7.9 PPM | Log (Growth) ([2]; 6 days, 12.8 PPM): 0.0 | H2S ([2]; 6 days, 25.6 PPM): 7.3 PPM | Log (Growth) ([2]; 6 days, 25.6 PPM): 0.0 | H2S ([2]; 6 days, 51.3 PPM): 7.2 PPM | Log (Growth) ([2]; 6 days, 51.3 PPM): 0.0 | H2S ([2]; 6 days, 102.5 PPM): 7.5 PPM | Log (Growth) ([2]; 6 days, 102.5 PPM): 0.0 | H2S ([2]; 6 days, 205.0 PPM): 8.1 PPM | Log (Growth) ([2]; 6 days, 205.0 PPM): 0.0

— patent US20230183640A1, “METABOLIC INHIBITORS WITH EFFICACY FOR INHIBITING SULFIDE PRODUCTION IN HARSH ENVIRONMENTS” (MC (US) 3 LLC, priority 2020, published 2023)
